{
  "source": "patent EP0096931B1",
  "about": "“Radiographic imaging agents” (priority 1982, dated 1983)",
  "data": [
    {"experiment": "Skeletal imaging with a scintillation camera after intravenous injection of the imaging agent", "format": "in vivo, human", "settings": "acid or its monosodium salt replaces AMDP in the Example I kit; compared with the Example I result", "description": "An imaging agent is prepared using this kit by adding about 5 ml of a pertechnetate-Tc99m physiological saline solution, with an activity of about 0.278 x 10^10 Bq (about 75 mCi), from a commercial technetium source. The vial is agitated until the kit components are dissolved. About 1 ml of the agent is slowly injected, over a period of about 30 seconds, into an adult human subject weighing about 75 kg.", "values": [
      {"smiles": "NCC(O)(P(=O)(O)O)P(=O)(O)O", "note": "[ethane-1-hydroxy-2-amino-1,1-diphosphonic acid]", "skeletal images, carrier used instead of AMDP in the kit of Example I": "substantially similar results"},
      {"smiles": "CN(C)C(P(=O)(O)O)P(=O)(O)O", "note": "[methane-N,N-dimethylaminodiphosphonic acid]", "skeletal images, carrier used instead of AMDP in the kit of Example I": "substantially similar results"},
      {"smiles": "CNC(P(=O)(O)O)P(=O)(O)O", "note": "[methane-N-methylaminodiphosphonic acid]", "skeletal images, carrier used instead of AMDP in the kit of Example I": "substantially similar results"},
      {"smiles": "NC(O)(P(=O)(O)O)P(=O)(O)O", "note": "[methaneaminohydroxydiphosphonic acid]", "skeletal images, carrier used instead of AMDP in the kit of Example I": "substantially similar results"},
      {"smiles": "NCCC(O)(P(=O)(O)O)P(=O)(O)O", "note": "[propane-1-hydroxy-3-amino-1,1-diphosphonic acid]", "skeletal images, carrier used instead of AMDP in the kit of Example I": "substantially similar results"}
    ]}
  ]
}
